Assay results from patent publication US10221163B2 (priority 2015, dated 2019).
Like-named read-outs stand apart in the source and are kept apart here.

How the values were obtained:
IMP-1 = IMP-1 (Serratia marcescens, UniProt P52699); experiment: biochemical; assay type: biochemical; settings: fluorescence assay, CCF2-FA substrate, 2 pM enzyme, 2 hours at 25° C.; read-out: IMP-1 IC50
Method in brief: (§1)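 Enzyme activity was measured by fluorescence using CCF2-FA, a cephalosporin-linked 7-hydroxycoumarin/fluorescein substrate, with inhibitor, metallo-β-lactamase and substrate incubated together for 2 hours at 25° C. IC50 came from a 4-parameter fit of inhibition versus log inhibitor concentration.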

NDM-1 = NDM-1 (Klebsiella pneumoniae, UniProt C7C422); experiment: biochemical; assay type: biochemical; settings: fluorescence assay, CCF2-FA substrate, 1 pM enzyme, 2 hours at 25° C.; read-out: NDM-1 IC50
NDM-1, sequence (C7C422 whole entry, looked up, species assumed): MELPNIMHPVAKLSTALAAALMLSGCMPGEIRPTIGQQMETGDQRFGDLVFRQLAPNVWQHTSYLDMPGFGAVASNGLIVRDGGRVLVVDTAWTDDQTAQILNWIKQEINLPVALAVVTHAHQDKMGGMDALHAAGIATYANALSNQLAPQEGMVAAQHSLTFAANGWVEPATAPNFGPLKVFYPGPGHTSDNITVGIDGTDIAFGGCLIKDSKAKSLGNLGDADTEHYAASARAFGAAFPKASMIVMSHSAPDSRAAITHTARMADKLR
Method in brief: as §1

VIM-1 = VIM-1 (Pseudomonas aeruginosa (strain ATCC 15692 / DSM 22644 / CIP 104116 / JCM 14847 / LMG 12228 / 1C / PRS 101 / PAO1), UniProt A0A0F7KYQ8); experiment: biochemical; settings: CCF2-FA substrate, 30 pM enzyme, 2 hours at 25° C.
Method in brief: as §1

[1] = test system: Escherichia coli expressing NDM-1 (CLB30005, CLB30016); assay type: cell-based; settings: NDM-1 strain, with imipenem 1 μg/ml, 95% inhibition of growth
Method in brief: (§2)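 Colonies grown overnight on blood agar at 35° C were suspended in saline, diluted 1:100 into 1.1×CAMHB and dispensed. Imipenem was added to 1 μg/ml, then test compound. After 22 hours to 24 hours at 35° C, absorbance was recorded.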

[2] = test system: Klebsiella pneumoniae expressing VIM-1 (IHMA599644); assay type: cell-based; settings: VIM-1 strain IHMA599644, with imipenem 1 μg/ml, 95% inhibition of growth
Method in brief: as §2

[3] = test system: Serratia marcescens expressing IMP-1 (CL5741); assay type: cell-based; settings: IMP-1 strain CL5741, with imipenem 1 μg/ml, 95% inhibition of growth
Method in brief: as §2

[4] = test system: Pseudomonas aeruginosa efflux+ (MB9798), IMP-1; assay type: cell-based; settings: concentration restoring susceptibility to imipenem at 2 μg/mL in the presence of a class A, C, D serine β-lactamase inhibitor closely related to relebactam
Method in brief: (§3)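 P. aeruginosa PAO1-derived IMP-1 strains, efflux+ MB9798 and efflux− MB9799, tested by standard microbroth MIC with imipenem and/or ceftazidime fixed, usually at CLSI breakpoint, plus fixed class A/C β-lactamase inhibitor against AmpC. Inhibitor titrated; concentration restoring susceptibility recorded; MB9798/MB9799 fold difference indicates efflux.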

[5] = test system: Pseudomonas aeruginosa efflux− (MB9799), IMP-1; assay type: cell-based; settings: concentration restoring susceptibility to imipenem at 2 μg/mL in the presence of a class A, C, D serine β-lactamase inhibitor closely related to relebactam
Method in brief: as §3

[6] = test system: Pseudomonas aeruginosa MB9798 vs MB9799; settings: ratio MITC95 PA_9798/MITC95 PA_9799
Method in brief: as §3

[7] = fluorescence assay, read-out: VIM-1 IC50

IMP-1, sequence (P52699 whole entry, looked up, species assumed): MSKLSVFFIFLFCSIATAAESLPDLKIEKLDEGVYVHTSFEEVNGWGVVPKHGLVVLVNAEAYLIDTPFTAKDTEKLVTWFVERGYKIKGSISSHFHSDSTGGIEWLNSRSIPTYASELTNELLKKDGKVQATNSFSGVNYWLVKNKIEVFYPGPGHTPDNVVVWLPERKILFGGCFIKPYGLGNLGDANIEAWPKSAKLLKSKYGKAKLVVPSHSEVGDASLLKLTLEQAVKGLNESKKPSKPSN

Row | SMILES | IC50 (IMP-1) | IC50 (NDM-1) | IC50 (VIM-1; [7]) | Escherichia coli MITC95 [1] | Klebsiella pneumoniae MITC95 [2] | Serratia marcescens MITC95 [3] | P. aeruginosa expressing IMP-1, efflux + (MB9798) MITC95 [4] | P. aeruginosa expressing IMP-1, efflux − (MB9799) MITC95 [5] | Efflux ratio [6] | IC50 (VIM-1; VIM-1 IC50, fluorescence assay)
1 | C[C@@H](CCN)NS(=O)(=O)c1ccc(-c2cccc3[nH]c(N)nc23)c(-c2nn[nH]n2)c1S(N)(=O)=O [Example 267, (S)-4-(2-amino-1H-benzo[d]imidazol-4-yl)-N1-(4-aminobutan-2-yl)-3-(2H-tetrazol-5-yl)benzene-1,2-disulfonamide] | 1630 pM | 179 pM | 279 pM | 0.7813 µM | 1.563 µM | 1.563 µM | 0.7813 µM | 0.7813 µM | 1.00 | –
2 | NCCN1CC[C@H](NS(=O)(=O)c2ccc(-c3cccc4[nH]c(N)nc34)c(-c3nn[nH]n3)c2S(N)(=O)=O)C1 [Example 268, (S)-4-(2-amino-1H-benzo[d]imidazol-4-yl)-N1-(1-(2-aminoethyl)pyrrolidin-3-yl)-3-(2H-tetrazol-5-yl)benzene-1,2-disulfonamide] | 1100 pM | 61.2 pM | – | 0.7813 µM | 1.563 µM | 1.563 µM | 0.7813 µM | 0.7813 µM | 1.00 | 150 pM
3 | NCC(=O)NC1CCC[C@@H](c2ccc(S(=O)(=O)N[C@@H]3CCNC3)c(S(N)(=O)=O)c2-c2nn[nH]n2)C1 (stereo partly drawn) [Example 270, 2-Amino-N-((3R)-3-(4-(N—((R)-pyrrolidin-3-yl)sulfamoyl)-3-sulfamoyl-2-(2H-tetrazol-5-yl)phenyl)cyclohexyl)acetamide] | 2320 pM | 244 pM | 202 pM | 1.563 µM | 3.125 µM | 3.125 µM | 1.563 µM | 1.563 µM | 1.00 | –
4 | NC(=O)c1nc2c(-c3ccc(S(=O)(=O)N[C@@H]4CCNC4)c(S(N)(=O)=O)c3-c3nn[nH]n3)cccc2[nH]1 [Example 271, (R)-4-(4-(N-(pyrrolidin-3-yl)sulfamoyl)-3-sulfamoyl-2-(2H-tetrazol-5-yl)phenyl)-1H-benzo[d]imidazole-2-carboxamide] | 271 pM | 19.6 pM | 98.9 pM | 1.563 µM | 3.125 µM | 0.7813 µM | 0.7813 µM | 1.563 µM | 0.50 | –
5 | C[C@H](N)c1nc2c(-c3ccc(S(=O)(=O)N[C@@H]4CCNC4)c(S(N)(=O)=O)c3-c3nn[nH]n3)cccc2[nH]1 [Example 272, 4-(2-((S)-1-aminoethyl)-1H-benzo[d]imidazol-4-yl)-N1-((R)-pyrrolidin-3-yl)-3-(2H-tetrazol-5-yl)benzene-1,2-disulfonamide] | 1360 pM | 66.7 pM | 110 pM | 3.125 µM | 1.563 µM | 1.563 µM | 1.563 µM | 0.7813 µM | 2.00 | –
6 | C[C@@H](N)c1nc2c(-c3ccc(S(=O)(=O)N[C@@H]4CCNC4)c(S(N)(=O)=O)c3-c3nn[nH]n3)cccc2[nH]1 [Example 273, 4-(2-((R)-1-aminoethyl)-1H-benzo[d]imidazol-4-yl)-N1-((R)-pyrrolidin-3-yl)-3-(2H-tetrazol-5-yl)benzene-1,2-disulfonamide] | 1410 pM | 56.5 pM | 124 pM | 1.563 µM | 1.563 µM | 1.563 µM | 0.7813 µM | 0.7813 µM | 1.00 | –
7 | NCc1nc2cc(-c3ccc(S(=O)(=O)N[C@@H]4CCNC4)c(S(N)(=O)=O)c3-c3nn[nH]n3)ccc2[nH]1 [Example 274, (R)-4-(2-(aminomethyl)-1H-benzo[d]imidazol-5-yl)-N1-(pyrrolidin-3-yl)-3-(2H -tetrazol-5-yl)benzene-1,2-disulfonamide] | 486 pM | 83.3 pM | 102 pM | 0.7813 µM | 1.563 µM | 1.563 µM | 0.7813 µM | 0.7813 µM | 1.00 | –
8 | NCc1nc2cc(-c3ccc(S(=O)(=O)N[C@@H]4CCNC4)c(S(N)(=O)=O)c3-c3nn[nH]n3)ccc2s1 [Example 275, (R)-4-(2-(aminomethyl)benzo[d]thiazol-5-yl)-N^1-(pyrrolidin-3-yl)-3-(2H-tetrazol-5-yl)benzene-1,2-disulfonamide] | 171 pM | 63.3 pM | – | 0.7813 µM | 1.563 µM | 0.7813 µM | 0.7813 µM | 0.7813 µM | 1.00 | 90.2 pM
9 | NCc1nc2c(-c3ccc(S(=O)(=O)N[C@@H]4CCNC4)c(S(N)(=O)=O)c3-c3nn[nH]n3)cccc2s1 [Example 276, (R)-4-(2-(aminomethyl)benzo[d]thiazol-4-yl)-N1-(pyrrolidin-3-yl)-3-(2H-tetrazol-5-yl)benzene-1,2-disulfonamide] | 542 pM | 56.1 pM | – | 1.172 µM | 0.7813 µM | 0.7813 µM | 0.7813 µM | 0.7813 µM | 1.00 | 88.1 pM
10 | Nc1cccc(-c2ccc(S(=O)(=O)N[C@@H]3CCNC3)c(S(N)(=O)=O)c2-c2nn[nH]n2)n1 [Example 277, (R)-4-(6-aminopyridin-2-yl)-N1-(pyrrolidin-3-yl)-3-(2H-tetrazol-5-yl)benzene-1,2-disulfonamide] | 1270 pM | 148 pM | 129 pM | 0.7813 µM | 1.563 µM | 1.563 µM | 0.7813 µM | 0.7813 µM | 1.00 | –
11 | NCc1ncc(-c2cccc(-c3ccc(S(=O)(=O)N[C@@H]4CCNC4)c(S(N)(=O)=O)c3-c3nn[nH]n3)c2)[nH]1 [Example 278, (R)-3′-(2-(aminomethyl)-1H-imidazol-5-yl)-N4-(pyrrolidin-3-yl)-2-(2H-tetrazol-5-yl)-[1,1′-biphenyl]-3,4-disulfonamide] | 640 pM | 56.6 pM | – | 0.7813 µM | 0.7813 µM | 0.7813 µM | 0.7813 µM | 0.7813 µM | 1.00 | 144 pM
12 | NCCn1nc2cccc(-c3ccc(S(=O)(=O)N[C@@H]4CCNC4)c(S(N)(=O)=O)c3-c3nn[nH]n3)c2n1 [Example 279, (R)-4-(2-(2-aminoethyl)-2H-benzo[d][1,2,3]triazol-4-yl)-N1-(pyrrolidin-3-yl)-3-(2H-tetrazol-5-yl)benzene-1,2-disulfonamide] | 3030 pM | 232 pM | – | 0.7813 µM | 0.7813 µM | 0.7813 µM | 0.7813 µM | 0.7813 µM | 1.00 | 133 pM
